Assay results taken from patent US6821980B1, “Substituted 5-benzyl-2,4-diaminopyrimidines” (Basilea Pharmaceutica AG, priority 1999, dated 2004).
pIC50: −log10 of the molar value. In brackets after ≈: the same amount, converted by molar mass. Like-named read-outs stand apart in the source and are kept apart here.

Legend:
[1] = test system: Streptococcus pneumoniae 1/1; experiment: MIC against Streptococcus pneumoniae 1/1; format: cell-based
[2] = target: purified DHFR of strain 157/4696 of Staphylococcus aureus (Staphylococcus aureus, UniProt P13955); experiment: biochemical
Chain of purified DHFR of strain 157/4696 of Staphylococcus aureus (P13955 whole entry): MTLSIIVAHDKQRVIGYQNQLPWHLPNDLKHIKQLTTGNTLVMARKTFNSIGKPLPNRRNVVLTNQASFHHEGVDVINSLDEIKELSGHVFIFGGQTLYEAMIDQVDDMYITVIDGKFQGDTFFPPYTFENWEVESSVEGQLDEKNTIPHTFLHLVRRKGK

[3] = target: T1, purified DHFR of strain Sp1/1 of Streptococcus pneumoniae (Streptococcus pneumoniae serotype 4, UniProt Q54801); format: biochemical; conditions: IC50 against purified DHFR of strain Sp1/1
T1 sequence (Q54801 1-168 I100L): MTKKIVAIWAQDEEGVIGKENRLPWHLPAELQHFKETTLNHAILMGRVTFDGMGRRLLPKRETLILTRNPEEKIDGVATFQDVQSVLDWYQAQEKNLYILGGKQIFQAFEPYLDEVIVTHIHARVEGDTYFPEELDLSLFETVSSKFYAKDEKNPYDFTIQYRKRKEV

[4] = test system: Staphylococcus aureus 101; experiment: MIC against Staphylococcus aureus 101; format: cell-based; conditions: Staphylococcus aureus 101, MRSA- and trimethoprim-resistant, clinical isolate; for MIC: Table 2, read-out: MIC Sa101
[5] = Table 2, Streptococcus pneumoniae 1/1, trimethoprim- and penicillin-resistant, serotype 6, clinical isolate, read-out: MIC Sp1/1
[6] = Streptococcus pneumoniae, 1/1, read-out: MIC Sp1/1

SMILES	MIC [1, 5] [µg/mL]	pIC50 [2]	pIC50 ([3]; Table 2)	MIC [4] [µg/mL]	MIC [1, 6] [µg/mL]	MIC Sp1/1 ([1]; Table 1, Streptococcus pneumoniae 1/1, trimethoprim- and penicillin-resistant, serotype 6, clinical isolate) [µg/mL]	pIC50 ([2]; Table 1, IC50 against purified DHFR of strain 157/4696 (highly trimethoprim-resistant; clinical isolate), read-out: DHFR Sa1)	pIC50 ([3]; Table 1)	MIC Sa101 ([4]; Table 1) [µg/mL]
CCOc1cc(Cc2cnc(N)nc2N)cc(OCC)c1-c1cc(N)cc(F)c1 [Example 04-t, 5-(5′-Amino-2,6-diethoxy-3′-fluoro-biphenyl-4-ylmethyl)-pyrimidine-2,4-diamine]	2 (≈ 5.03 µM)	5.92	7.51	8 (≈ 20.1 µM)					
CCOc1cc(Cc2cnc(N)nc2N)cc(OCC)c1-c1cccc(C=O)c1 [Example 04-u, 4′-(2,4-Diamino-pyrimidin-5-ylmethyl)-2′,6′-diethoxy-biphenyl-3-carbaldehyde]	4 (≈ 10.2 µM)	5.72	7.19	8 (≈ 20.4 µM)					
CCOc1cc(Cc2cnc(N)nc2N)cc(OCC)c1-c1ccc(CNCC(F)(F)F)cc1 [Example 04-v, 5-[2,6-Diethoxy-4′-[(2,2,2-trifluoroethylamino)-methyl]-biphenyl-4-ylmethyl]-pyrimidine-2,4-diamine]	4 (≈ 8.41 µM)	5.89	6.82	8 (≈ 16.8 µM)					
CCOc1cc(Cc2cnc(N)nc2N)cc(OCC)c1-c1ccc(CN2CCC(=O)N2)cc1 [Example 04-w, 1-[4′-(2,4-Diamino-pyrimidin-5-lmethyl)-2′,6′-diethoxy-biphenyl-4-ylmethyl]-pyrazolidin-3-one]	8 (≈ 17.3 µM)	5.92	7.09	8 (≈ 17.3 µM)					
CCOc1cc(Cc2cnc(N)nc2N)cc(OCC)c1-c1cnc(CN2CCOCC2)nc1 [Example 04-x, 5-[3,5-Diethoxy-4-(2-morpholin-4-ylmethyl-pyrimidin-5-yl)-benzyl]-pyrimidine-2,4-diamine]	8 (≈ 17.2 µM)	5.10	7.10	8 (≈ 17.2 µM)					
CCOc1cc(Cc2cnc(N)nc2N)cc(OCC)c1-c1ccc(CN2CCCC2)cc1 [Example 04-y, 5-(2,6-Diethoxy-4′-pyrrolidin-1-ylmethyl-biphenyl-4-ylmethyl)-pyrimidine-2,4-diamine]	8 (≈ 17.9 µM)	6.05	7.04	8 (≈ 17.9 µM)					
CCOc1cc(Cc2cnc(N)nc2N)cc(OCC)c1-c1ccc(CN2CCOCC2)c(F)c1 [Example 04-z]	4 (≈ 8.31 µM)	5.42	7.24	8 (≈ 16.6 µM)					
CCOc1cc(Cc2cnc(N)nc2N)cc(OCC)c1-c1cccc(OC)c1 [Example 05-a, 5-(2,6-Diethoxy-3′-methoxy-biphenyl-4-ylmethyl)-pyrimidine-2,4-diamine]	2 (≈ 5.07 µM)	5.21	7.34	8 (≈ 20.3 µM)					
CCOc1cc(Cc2cnc(N)nc2N)cc(OCC)c1-c1ccc(OC)cc1 [Example 05-b, 5-(2,6-Diethoxy-4′-methoxy-biphenyl-4-ylmethyl)-pyrimidine-2,4-diamine]	4 (≈ 10.1 µM)	5.82	7.40	16 (≈ 40.6 µM)					
CCOc1cc(Cc2cnc(N)nc2N)cc(OCC)c1-c1cccc(NC(C)=O)c1 [Example 05-c, N-[4′-(2,4-Diamino-pyrimidin-5-ylmethyl)-2′,6′-diethoxy-biphenyl-3-yl]-acetamide]	4 (≈ 9.49 µM)	5.59	7.52	8 (≈ 19 µM)					
CCOc1cc(Cc2cnc(N)nc2N)cc(OCC)c1-c1cccc(O)c1 [Example 05-d, 4′-(2,4-Diamino-pyrimidin-5-ylmethyl)-2′,6′-diethoxy-biphenyl-3-ol]	2 (≈ 5.26 µM)	5.51	7.15	4 (≈ 10.5 µM)					
CCOc1cc(Cc2cnc(N)nc2N)cc(OCC2(CC#N)CC2)c1-c1cccc(N)c1 [Example 07-b, {1-[3′-Amino-4-(2,4-diamino-pyrimidin-5-ylmethyl)-6-ethoxy-biphenyl-2-yloxymethyl]-cydopropyl}-acetonitrile]	2 (≈ 4.5 µM)	6.02	7.44	8 (≈ 18 µM)					
CCOc1cc(Cc2cnc(N)nc2N)cc(OCC2(COC)CC2)c1-c1cccc(N)c1 [Example 07-c, 5-[3′-Amino-6-ethoxg-2-[(1-methoxymethyl-cyclopropyl)-methoxy]-biphenyl-4-yimethyl]-pyrimidine-2,4-diamine]	4 (≈ 8.9 µM)	5.66	7.32	8 (≈ 17.8 µM)					
CCOc1cc(Cc2cnc(N)nc2N)cc(OC2CCCC2)c1-c1cccc(N)c1 [Example 07-d, 5-(3′-Amino-6-cycloventloxy-2-ethoxy-biphenyl-4-ylmethyl)-pyrimidine-2,4-diamine]	1 (≈ 2.38 µM)	6.17	8.09	4 (≈ 9.53 µM)					
CCOc1cc(Cc2cnc(N)nc2N)cc(OC2CCC2)c1-c1cccc(N)c1 [Example 07-e, 5-(3′-Amino-6-qdobutoxy-2-ethoxy-biphenyl-4-ylmethyl)-pyrimidine-2,4-diamine]	1 (≈ 2.47 µM)	6.19	7.55	4 (≈ 9.86 µM)					
CCOc1cc(Cc2cnc(N)nc2N)cc(OCC(C)(C)C=CC#N)c1-c1cccc(N)c1 [Example 07-f, (E)-5-[3′-Amino-4-(2,4-diamino-pyrimidin-5-ylmeth)-6-ethoxy-biphenyl-2-yloxy]-4,4-dimethyl-pent-2-ene-nitrile]		6.12	7.26	8 (≈ 17.4 µM)	2 (≈ 4.36 µM)				
CCOc1cc(Cc2cnc(N)nc2N)cc(OCCc2ccccn2)c1-c1cccc(N)c1 [Example 07-g, 5-[3′-Amino-6-ethoxy-2-(2-pyridin-2-yl-ethoxy)-biphenyl-4-ylmethyl]-pyrimidine-2,4-diamine]	8 (≈ 17.5 µM)	6.19	7.52	8 (≈ 17.5 µM)					
CCOc1cc(Cc2cnc(N)nc2N)cc(OCC(F)(F)F)c1-c1cccc(N)c1 [Example 07-i, 5-[3′-Amino-6-ethoxy-2-(2,2,2-trifluoro-ethoxy)-biphenyl-4-ylmethyl]-pyrimidine-2,4-diamine]	4 (≈ 9.23 µM)	6.05	7.55	4 (≈ 9.23 µM)					
CCOc1cc(Cc2cnc(N)nc2N)cc(OCCC2CCOCC2)c1-c1cccc(N)c1 [Example 07-j, 5-{3′-Amino-2-ethoxy-6-[2-(tetrahydro-pyran-4-yl)-ethoxy]-biphenyl-4-ylmethyl}-pyrimidine-2,4-diamine]	1 (≈ 2.16 µM)	5.89	7.54	8 (≈ 17.3 µM)					
CCOc1cc(Cc2cnc(N)nc2N)cc(OCC2CC2)c1-c1cccc(N)c1 [Example 7a, 5-(3′-Amino-6-cyclopropylmethoxy-2-ethoxy-biphenyl-4-ylmethyl)-pirimidine-2,4-diamine]						1 (≈ 2.47 µM)	6.29	8.68	8 (≈ 19.7 µM)
CCOc1cc(Cc2cnc(N)nc2N)cc(OCC(C)(C)COC)c1-c1ccc(O)cc1 [Example 08-a, 4′-(2,4-Diamino-pylimidin-5-ylmethyl)-6′-ethoxy-2′-(3-methoxy-2,2-dimethyl-propoxy)-biphenyl-4-ol]	2 (≈ 4.42 µM)	5.77	7.74	8 (≈ 17.7 µM)					
CCOc1cc(Cc2cnc(N)nc2N)cc(OCC(C)(C)/C=C/C#N)c1-c1ccc(O)cc1 [Example 08-b, (E)-5-[4-(2,4-Diamino-pyrimidin-5-ylmethyl)-6-ethoxy-4′-hydroxy-biphenyl-2-yloxy]-4,4-dimethyl-pent-2-ene-nitrile]		6.02	7.42	8 (≈ 17.4 µM)	2 (≈ 4.35 µM)				
CCOc1cc(Cc2cnc(N)nc2N)cc(OCC2(CC#N)CC2)c1-c1ccc(O)cc1 [Example 08-c, {1-[4-(2,4-Diamino-pyrimidin-5-ylmethyl)-6-ethoxy-4′-hydroxy-biphenyl-2-yloxymethyl]-cyclopropyl}-acetonitrile]	4 (≈ 8.98 µM)	5.80	7.62	8 (≈ 18 µM)					
CCOc1cc(Cc2cnc(N)nc2N)cc(OCC2(/C=C/C#N)CC2)c1-c1ccc(O)cc1 [Example 08-d, (E)-3-[1-[4-(2,4-Diamino-pyrimidin-5-ylmethyl)-6-ethoxy-4′-hydrozy-biphenyl-2-yloxymethyl]-cyopropyl]-acrylonitrile]	4 (≈ 8.74 µM)	6.21	7.80	8 (≈ 17.5 µM)					
CCOc1cc(Cc2cnc(N)nc2N)cc(OCCC2CCOCC2)c1-c1ccc(O)cc1 [Example 08-e, 4′-(2,4-Diamino-pyrimidin-5-ylmethyl)-6′-ethoxy-2′-[2-(tetrahydrogyran-4-yl)-ethoxy]-biphenyl-4-ol]	1 (≈ 2.15 µM)	6.02	8.25	8 (≈ 17.2 µM)					
CCOc1cc(Cc2cnc(N)nc2N)cc(OCC2(C#N)CC2)c1-c1ccc(O)cc1 [Example 08-f, 1-[4-(2,4-Diamino-pyrimidin-5-ylmethyl)-6-ethoxy-4′-hydroxy-biphenyl-2-yloxymethyl]-cyclopropanecarbonitrile]	4 (≈ 9.27 µM)	6.02	7.31	8 (≈ 18.5 µM)					
CCOc1cc(Cc2cnc(N)nc2N)cc(OCCc2ccccn2)c1-c1ccc(O)cc1 [Example 08-g, 4′-(2,4-Diamino-pyrimidin-5-ylmethyl)-6′-ethoxy-2′-(2-pyridin-2-yl-ethoxy)-biphenyl-4-ol]	4 (≈ 8.74 µM)	5.89	7.28	8 (≈ 17.5 µM)					
